What was measured:
RNABabySpinach = assay: Fluorescence of H2O2-treated aptamer solutions; format: biochemical; conditions: for rise of fluorescence intensity of ligand+RNABabySpinach+H2O2: H2O2 100 μM
Method: FIGS. 7A-7C depict H2O2 treatment of the aptamer systems. HBI and PBE-HBI (50 μM), RNA (1 μM RNABabySpinach), HEPES (pH 8, 50 mM), KCl (100 mM), MgCl2 (10 mM), H2O2 (100 μM). FIG. 7A depict the time-dependent change in fluorescence intensity upon H2O2 addition. FIG. 7B depicts normalized RFUs at 0, 5, and 60 min. FIG. 7C depicts RNABabySpinach stability against H2O2. TBE-urea PAGE lanes: 1. Native RNA; 2. [HBI+RNA]; 3. [HBI+RNA+H2O2]; 4. [PBE-HBI+RNA]; 5. [PBE-HBI+RNA+H2O2]. For imaging, the gel was stained with SYBR gold.
Next, the change in fluorescence for H2O2-treated aptamer solutions that contain HBI (positive control) and PBE-HBI (FIGS. 7A and 7B) was monitored. The RFU of PBE-HBI+RNABabySpinach was lower than that of HBI+RNABabySpinach by 14-fold at 0 min (no H2O2 present), validating that masking the phenolic oxygen of HBI inhibits RNA binding. Upon addition of H2O2 (100 μM), RFU of PBE-HBI+RNABabySpinach reached up to 92% of RFU of the control in 60 min. […] Upon H2O2 addition, the solution pH increased from 8.0 to 8.4 while ˜10% growth in fluorescence intensity was measured for the HBI-containing samples. This change is attributed to the pH-dependent increase in the phenolate form of HBI (see FIG. 5), which is known to have a higher extinction coefficient than its phenol form. […] To investigate the backbone stability of RNABabySpinach under these oxidative conditions, PAGE analyses of RNABabySpinach solutions containing HBI (FIG. 7C, lanes 2 and 3) and PBE-HBI (FIG. 7C, lanes 4 and 5) were carried out.
Remarkably, the kinetics of H2O2 detection, which involves conversion of PBE-HBI to HBI, followed by HBI-aptamer binding, is fast. The incubation time to achieve 1/2 RFUmax through this process is 6.8 (±0.5) min. Reliable detection of H2O2 is feasible in ˜1 min as the fluorescence intensity doubles. These findings are encouraging and serve as a standard for comparing the detection kinetics for other probes. […] In certain embodiments, reliable detection of elevated ALP may require longer incubations with the respective ABA system (FIG. 3G), as ALP has a relatively small margin of variation. The rates of biomarker detection can be modulated by substituting the HBI carbon framework of the probes (FIGS. 3A-3G) with electron donating (—OMe, —NMe2) or withdrawing (—F, —CF3) groups.

RNABabySpinach (51-nt) = assay: Experimental binding assay (fluorescence) with RNABabySpinach; conditions: Fluorophore (2 μM), RNA (1 μM); for fluorescence intensity with RNABabySpinach: HEPES (pH 8, 20 mM), KCl (100 mM), MgCl2 (10 mM)
Source text: FIGS. 4A-4E depict the effect of chemical modifications of HBI on its binding interactions with RNA. FIG. 4A is a crystal structure of DFHBI-RNASpinach (PDB: 4TS2) focusing on the key H-bonding interactions of DFHBI within the G-G-A binding pocket of RNASpinach. […] FIG. 4C is a Pymol view of docked Oct-HBI-RNASpinach, showing that these interactions are disrupted. FIG. 4D is a Pymol view of a docked methyl carbonate-modified HBI-RNASpinach, showing that these interactions are disrupted. FIG. 4E depicts normalized RFUs of HBI and HBI+RNABabySpinach (gray bars) vs. Oct-HBI and Oct-HBI+RNABabySpinach (blue bars). Fluorophore (2 μM), RNA (1 μM), HEPES (pH 8, 20 mM), KCl (100 mM), and MgCl2 (10 mM).
Ligand docking is a useful tool to screen virtual library of molecules to predict binding affinity and conformation of a ligand within a binding pocket. To gain a theoretical insight into the effect of chemical modifications of HBI on its binding interactions with RNA, a robust docking method named Auto-Dock Vina was used (FIGS. 4A-4D). First, the validity of this method was tested by comparing the proposed HBI-RNASpinach docking (FIG. 4B) with the X-ray crystal structure of the native ligand-RNASpinach [FIG. 4A; the co-crystallized ligand in the reported study is 3,5-difluoro-HBI (DFHBI)]. To attain the initial HBI structure for docking, optimizations were performed in gas phase via density functional theory calculations using B3LYP, 6-31G basis set in Gaussian16 software. […] Next, the phenolic oxygen of HBI was replaced with alkyl carbonate groups.

[1] = not told; cited from earlier work
[2] = free (unbound) ligand; cited from earlier work
[3] = test system: E. coli competent cells (e.g., BL21-DE3); assay: Fluorescence imaging of H2O2 in E. coli expressing aptamer; format: cell-based; conditions: for fluorescence in E. coli expressing aptamer: imaging buffer with H2O2 (100 μM)
Source text: FIGS. 8A-8D depict detection of H2O2 in E. coli utilizing PBAB-MFHBI. FIG. 8A provides a schematic showing the detection of H2O2 in E. coli by fluorescence of MFHBI upon cleavage from PBAB-MFHBI. FIGS. 8B-8D provide fluorescence images of E. coli expressing aptamer plasmid which have been administered MFHBI (FIG. 8B), PBA-MFHBI (FIG. 8C), and PBA-MFHBI in the presence of H2O2 (FIG. 8D). Dual channel: MFHBI+RNA (470/550 nm) and FM 4-64FX (510/640 nm). Scale bar: 10 μm.
For histochemical detection of oxidative stress in living cells, the focus is first on E. coli competent cells (e.g., BL21-DE3) (FIGS. 8A-8D). For the imaging of H2O2, BL21-DE3 cells are transformed with plasmid DNA that contains a T7 promoter and RNABabySpinach or a custom triple baby spinach construct, which allows for the expression of three baby spinach RNA aptamers per transcription cycle. These cells are inoculated with isopropyl β-D-1-thiogalactopyranoside (IPTG) to induce RNA transcription. […] The results can guide additional studies with more complex and biologically relevant cell lines, in particular, any primary or established mammalian cells (e.g., HEK293, HeLa, and HUVEC, inter alia). Detection of endogenous H2O2 generation can also be studied by using molecular stimulants known to trigger mitochondrial ROS production, such as Phorbol 12-myristate 13-acetate (PMA).

BL21-DE3 cells = assay: Fluorescence imaging of H2S in E. coli expressing aptamer; format: cell-based; conditions: upon introduction of H2S (1 mM)
Source text: FIGS. 9A-9D depict detection of H2S in E. coli utilizing AEC-MFHBI. FIG. 9A provides a schematic showing the detection of H2S in E. coli by fluorescence of MFHBI upon cleavage from AEC-MFHBI. FIGS. 9B-9D provide fluorescence images of E. coli expressing aptamer plasmid which have been administered MFHBI (FIG. 9B), AEC-MFHBI (FIG. 9C), and AEC-MFHBI in the presence of H2S (FIG. 9D). Dual channel: MFHBI+RNA (470/550 nm) and FM 4-64FX (510/640 nm). Scale bar: 10 μm.
Imaging of hydrogen sulfide (H2S) has been performed in an analogous manner to that which is described for the detection of H2O2. Specifically, BL21-DE3 cells are transformed with plasmid DNA that contains a T7 promoter and RNABabySpinach or a custom triple baby spinach construct, which allows for the expression of three baby spinach RNA aptamers per transcription cycle. These cells are inoculated with isopropyl β-D-1-thiogalactopyranoside (IPTG) to induce RNA transcription. Subsequent immobilization of the cells on glass dish coated with poly-L-lysine (PLL) and incubation with an imaging buffer (IB) containing the imaging agents and/or controls (i.e., MFHBI, FIG. 9B; or AEC-MFHBI, FIGS. 9C-9D), allowed real time fluorescence imaging of SH2 in cellulo.

4-hydroxy-benzylidene imidazolinone [HBI, reference compound]
growth in fluorescence intensity upon H2O2 addition (RNABabySpinach; H2O2 addition, solution pH increased from 8.0 to 8.4): ~10% | fluorescence intensity with RNABabySpinach (RNABabySpinach (51-nt)): 846 RFU | cell permeability [1]: cell permeable | fluorescence quantum yield Φf [2]: ~0.0001

CC1=N/C(=C\c2ccc(OCc3ccc(B4OC(C)(C)C(C)(C)O4)cc3)cc2)C(=O)N1C [PBE-HBI]
RFU lower than that of HBI+RNABabySpinach (RNABabySpinach; 0 min (no H2O2 present), 50 μM ligand, 1 μM RNA, HEPES pH 8): 14 fold | RFU as % of RFU of the control (HBI+RNABabySpinach) (RNABabySpinach; H2O2 (100 μM), in 60 min): up to 92% | time for reliable detection of H2O2 (fluorescence intensity doubles) (RNABabySpinach; H2O2 detection): ~1 min | incubation time to achieve 1/2 RFUmax (RNABabySpinach; H2O2 detection: conversion to HBI followed by HBI-aptamer binding): 6.8 (±0.5) min | rise of fluorescence intensity of ligand+RNABabySpinach+H2O2 (RNABabySpinach; after 60 min): ~8 fold | rise of fluorescence intensity of ligand+RNABabySpinach+H2O2 (RNABabySpinach; at 5 min): ~4 fold | fluorescence in E. coli expressing aptamer [3]: rapid increase in fluorescence within one hour

CC1=N/C(=C\c2ccc(OCc3ccc(B(O)O)cc3)c(F)c2)C(=O)N1C [PBAB-MFHBI]
fluorescence in E. coli expressing aptamer, control sample ([3]; exogenous H2O2 absent (FIG. 8C)): very small increase in fluorescence | fluorescence in E. coli expressing aptamer [3]: rapid increase in fluorescence within one hour

CCCCCCCCOC(=O)Oc1ccc(/C=C2\N=C(C)N(C)C2=O)cc1 [Oct-HBI]
fluorescence intensity with RNABabySpinach (RNABabySpinach (51-nt)): 21 RFU | decrease in fluorescence intensity compared to HBI-RNABabySpinach (RNABabySpinach (51-nt); HEPES pH 8): ~40 times

CC1=N/C(=C\c2ccc(OC(=O)OCCN=[N+]=[N-])c(F)c2)C(=O)N1C [AEC-MFHBI]
fluorescence in E. coli expressing aptamer (BL21-DE3 cells): rapid increase in fluorescence is observed within one hour
